{"source": "patent US7018648B2", "about": "“Transdermal device for administering testosterone or one of the derivatives thereof” (Pierre Fabre Medicament, priority 1999, dated 2006)", "key": {"[1]": {"assay": "Ex vivo permeation on animal skin after pretreatment with promoter compound (permeation index vs blank reference product)", "type": "in vitro ADME", "conditions": "for Permeation index: ratio of cumulative amount of testosterone at 24 hours after skin pretreatment with the compound relative to blank, 1 = no promoting effect", "text": "FIG. 1 represents the permeation indices (PIs), also known as the “enhancement factors” for comparing in vitro the promoting effect of different products.\nThis is the product sold by the company Alza under the brand name Testoderm CIII®. This matrix transdermal device for scrotal application is free of promoters and, consequently, is more particularly suitable for performing in vitro protocols intended to select the best permeation promoters of this active principle.\nAs regards the second category of products, it is more particularly advantageous to check their permeation-promoting effect with respect to the active principle according to the invention. Ex vivo studies of permeation on animal skin are carried out using a reference product whose kinetics constitute a “blank”, and then after initial pretreatment of the skin with the promoter compound. The ratio of the cumulative amount at 24 hours of the test relative to the “blank” gives the permeation index “PI” factor or “enhancement factor”. A permeation index of close to 1 means that the test product has no promoting effect for the active principle under consideration and under the operating conditions used. A classification is then possible according to the indications of table II below."}, "[2]": {"assay": "Solubility at saturation of testosterone in solvents/excipients", "type": "physicochemical", "protocol": "Studies for selecting the components of the adhesive matrix other than the actual adhesive are useful and involve solubility and in vitro permeation tests. To evaluate the solubilizing power of different components, solubility studies at saturation are performed."}}}
{"compound": "CCN(CC)C(=O)c1cccc(C)c1", "note": "[DEET, N,N-diethyl-m-toluamide]", "values": [{"measurement": "testosterone permeation-promoting effect", "setting": "[1]; in words", "value": "lacks any testosterone-promoting effect"}]}
{"compound": "CCCCCCCCCCCCN1CCCC1=O", "note": "[Laurylpyrrolidone]", "values": [{"measurement": "Permeation index", "setting": "[1]", "value": 11.27}]}
{"compound": "C[C@]12CCC(=O)C=C1CC[C@@H]1[C@@H]2CC[C@]2(C)C(O)CC[C@@H]12", "note": "(some centres unmarked) [testosterone, 17-hydroxyandrost-4-en-3-one]", "values": [{"measurement": "Solubility at saturation of testosterone", "setting": "[2]; in Cyclohexane", "value": 0.06, "unit": "% m/m"}, {"measurement": "Solubility at saturation of testosterone", "setting": "[2]; in Ethanol", "value": 22.12, "unit": "% m/m"}, {"measurement": "Solubility at saturation of testosterone", "setting": "[2]; in Ethyl acetate", "value": 4.45, "unit": "% m/m"}, {"measurement": "Solubility at saturation of testosterone", "setting": "[2]; in Isopropanol", "value": 12.80, "unit": "% m/m"}, {"measurement": "Solubility at saturation of testosterone", "setting": "[2]; in Laurylpyrrolidone", "value": 15.90, "unit": "% m/m"}, {"measurement": "Solubility at saturation of testosterone", "setting": "[2]; in Lysophosphatidylcholine", "value": 6.96, "unit": "% m/m"}, {"measurement": "Solubility at saturation of testosterone", "setting": "[2]; in Methyl laurate", "value": 1.43, "unit": "% m/m"}, {"measurement": "Solubility at saturation of testosterone", "setting": "[2]; in Polysorbate 80", "value": 2.62, "unit": "% m/m"}, {"measurement": "Solubility at saturation of testosterone", "setting": "[2]; in Sorbitan laurate", "value": 4.12, "unit": "% m/m"}, {"measurement": "Solubility at saturation of testosterone", "setting": "[2]; in Tetrahydrofuran", "value": 27.01, "unit": "% m/m"}]}
{"compound": "Lysophosphatidylchloline", "values": [{"measurement": "Permeation index", "setting": "[1]", "value": 9.18}]}
{"compound": "Sorbitan laurate", "values": [{"measurement": "Permeation index", "setting": "[1]", "value": 11.70}]}
